Reference: publication PMC9520775, “Everolimus pharmacokinetics and exposure-response relationship in Japanese patients with advanced breast cancer” (Frontiers in Pharmacology, 2022)

Tested on: patients with advanced or metastatic breast cancer
Assay: Adverse events (CTCAE Ver. 4.0), dose-limiting toxicities and dose reductions under everolimus
Type: in vivo, human
From the text: This was a prospective, observational PK study. Patients with advanced or metastatic breast cancer who received everolimus between November 2015 and November 2018 at Kobe City Medical Center General Hospital were enrolled in this study. The main inclusion criteria included the following: age ≥20 years; Eastern Cooperative Oncology Group (ECOG) performance status (PS): 0 or 1; and adequate bone marrow, liver, and renal function. The main exclusion criteria were interstitial pneumonia or pulmonary fibrosis, HBsAg positive, and psychiatric or psychological symptoms that made it difficult to participate in the study. Every participant provided written informed consent. This study was conducted in accordance with the Declaration of Helsinki and approved by the Institutional Review Board, under Approval Number zn151103.
Based on the physician’s decision, the patients were prescribed a starting dose of either 5 or 10 mg everolimus once daily. The everolimus dose was reduced when a patient experienced adverse events higher than grade 2. The first reduced dose was 5 mg once daily, followed by the second reduced dose of 2.5 mg once daily or 5 mg every alternate day. In addition, everolimus doses could be increased if adverse events improved to grade 1 or less, or deemed inefficacious. The adverse events were evaluated weekly for the first month and then every 1–4 weeks, according to the Common Terminology Criteria for Adverse Events Ver. 4.0.
Statistical differences in everolimus trough concentrations, doses and body weights between patient cohorts were assessed using the Mann–Whitney test. Progression-free survival (PFS) was assessed using the Kaplan-Meier method and the log-rank test. All statistical analyses were performed using GraphPad Prism version 7.03 (San Diego, CA). p < 0.05 was considered statistically significant.

[1] = All patients (n = 18), Grade All
[2] = Initial dose: 5 mg/day (n = 6), Grade 1
[3] = Initial dose: 5 mg/day (n = 6), Grade 2
[4] = Initial dose: 5 mg/day (n = 6), Grade 3
[5] = Initial dose: 5 mg/day (n = 6), Grade 4
[6] = Initial dose: 5 mg/day (n = 6), Grade All
[7] = Initial dose: 10 mg/day (n = 12), Grade 1
[8] = Initial dose: 10 mg/day (n = 12), Grade 2
[9] = Initial dose: 10 mg/day (n = 12), Grade 3
[10] = Initial dose: 10 mg/day (n = 12), Grade 4
[11] = Initial dose: 10 mg/day (n = 12), Grade All

## CO[C@H]1C[C@@H]2CC[C@@H](C)[C@@](O)(O2)C(=O)C(=O)N2CCCC[C@H]2C(=O)O[C@H]([C@H](C)C[C@@H]2CC[C@@H](OCCO)[C@H](OC)C2)CC(=O)[C@H](C)/C=C(\C)[C@@H](O)[C@@H](OC)C(=O)[C@H](C)C[C@H](C)/C=C/C=C/C=C/1C [everolimus]
All patients (n = 18), Grade 1
  Adverse event, n: Diarrhea: 1
  Adverse event, n: Dysgeusia: 4
  Adverse event, n: Epistaxis: 6
  Adverse event, n: High cholesterol: 9
  Adverse event, n: Hyperglycemia: 4
  Adverse event, n: Hypertriglyceridemia: 8
  Adverse event, n: Hypokalemia: 6
  Adverse event, n: Interstitial lung disease: 3
  Adverse event, n: Malaise: 6
  Adverse event, n: Mucositis oral: 7
  Adverse event, n: Neutrophil count decreased: 2
  Adverse event, n: Platelet decrease: 9
  Adverse event, n: Rash: 11
All patients (n = 18), Grade 2
  Adverse event, n: Diarrhea: 4
  Adverse event, n: Dysgeusia: 1
  Adverse event, n: Epistaxis: 0
  Adverse event, n: High cholesterol: 2
  Adverse event, n: Hyperglycemia: 1
  Adverse event, n: Hypertriglyceridemia: 4
  Adverse event, n: Hypokalemia: 1
  Adverse event, n: Interstitial lung disease: 2
  Adverse event, n: Malaise: 1
  Adverse event, n: Mucositis oral: 10
  Adverse event, n: Neutrophil count decreased: 3
  Adverse event, n: Platelet decrease: 0
  Adverse event, n: Rash: 3
All patients (n = 18), Grade 3
  Adverse event, n: Diarrhea: 0
  Adverse event, n: Dysgeusia: 0
  Adverse event, n: Epistaxis: 0
  Adverse event, n: High cholesterol: 0
  Adverse event, n: Hyperglycemia: 0
  Adverse event, n: Hypertriglyceridemia: 0
  Adverse event, n: Hypokalemia: 1
  Adverse event, n: Interstitial lung disease: 0
  Adverse event, n: Malaise: 0
  Adverse event, n: Mucositis oral: 0
  Adverse event, n: Neutrophil count decreased: 1
  Adverse event, n: Platelet decrease: 0
  Adverse event, n: Rash: 0
All patients (n = 18), Grade 4
  Adverse event, n: Diarrhea: 0
  Adverse event, n: Dysgeusia: 0
  Adverse event, n: Epistaxis: 0
  Adverse event, n: High cholesterol: 0
  Adverse event, n: Hyperglycemia: 0
  Adverse event, n: Hypertriglyceridemia: 0
  Adverse event, n: Hypokalemia: 1
  Adverse event, n: Interstitial lung disease: 0
  Adverse event, n: Malaise: 0
  Adverse event, n: Mucositis oral: 0
  Adverse event, n: Neutrophil count decreased: 0
  Adverse event, n: Platelet decrease: 0
  Adverse event, n: Rash: 0
[1]
  Adverse event, n: Diarrhea: 5
  Adverse event, n: Dysgeusia: 5
  Adverse event, n: Epistaxis: 6
  Adverse event, n: High cholesterol: 11
  Adverse event, n: Hyperglycemia: 5
  Adverse event, n: Hypertriglyceridemia: 12
  Adverse event, n: Hypokalemia: 9
  Adverse event, n: Interstitial lung disease: 5
  Adverse event, n: Malaise: 7
  Adverse event, n: Mucositis oral: 17
  Adverse event, n: Neutrophil count decreased: 6
  Adverse event, n: Platelet decrease: 9
  Adverse event, n: Rash: 14
DLT (n = 13) vs no DLT (n = 18), Mann-Whitney test, p = 0.0058
  trough concentrations at DLTs compared with trough concentrations in the absence of DLTs: significantly higher
Dose 5 mg, BW 36.1–40.0 kg
  number of patients, DLTs (−): 1
Dose 5 mg, BW 40.1–45.0 kg
  number of patients, DLTs (−): 1
Dose 5 mg, BW 45.1–50.0 kg
  number of patients, DLTs (+): 1
Dose 5 mg, BW 50.1–55.0 kg
  number of patients, DLTs (+): 1
  number of patients, DLTs (−): 3
Dose 5 mg, BW 55.1–60.0 kg
  number of patients, DLTs (+): 3
  number of patients, DLTs (−): 2
Dose 10 mg, BW 36.1–40.0 kg
  number of patients, DLTs (+): 1
Dose 10 mg, BW 40.1–45.0 kg
  number of patients, DLTs (+): 1
  number of patients, DLTs (−): 1
Dose 10 mg, BW 45.1–50.0 kg
  number of patients, DLTs (+): 2
  number of patients, DLTs (−): 1
Dose 10 mg, BW 50.1–55.0 kg
  number of patients, DLTs (+): 2
Dose 10 mg, BW 55.1–60.0 kg
  number of patients, DLTs (+): 2
Dose 10 mg, BW 60.1–65.0 kg
  number of patients, DLTs (−): 1
Dose 10 mg, BW 66.1–70.0 kg
  number of patients, DLTs (−): 1
[2]
  Adverse event, n: Diarrhea: 0
  Adverse event, n: Dysgeusia: 1
  Adverse event, n: Epistaxis: 2
  Adverse event, n: High cholesterol: 4
  Adverse event, n: Hyperglycemia: 2
  Adverse event, n: Hypertriglyceridemia: 2
  Adverse event, n: Hypokalemia: 2
  Adverse event, n: Interstitial lung disease: 0
  Adverse event, n: Malaise: 1
  Adverse event, n: Mucositis oral: 2
  Adverse event, n: Neutrophil count decreased: 0
  Adverse event, n: Platelet decrease: 2
  Adverse event, n: Rash: 3
[3]
  Adverse event, n: Diarrhea: 1
  Adverse event, n: Dysgeusia: 1
  Adverse event, n: Epistaxis: 0
  Adverse event, n: High cholesterol: 0
  Adverse event, n: Hyperglycemia: 0
  Adverse event, n: Hypertriglyceridemia: 1
  Adverse event, n: Hypokalemia: 0
  Adverse event, n: Interstitial lung disease: 1
  Adverse event, n: Malaise: 1
  Adverse event, n: Mucositis oral: 4
  Adverse event, n: Neutrophil count decreased: 0
  Adverse event, n: Platelet decrease: 0
  Adverse event, n: Rash: 1
[4]
  Adverse event, n: Diarrhea: 0
  Adverse event, n: Dysgeusia: 0
  Adverse event, n: Epistaxis: 0
  Adverse event, n: High cholesterol: 0
  Adverse event, n: Hyperglycemia: 0
  Adverse event, n: Hypertriglyceridemia: 0
  Adverse event, n: Hypokalemia: 1
  Adverse event, n: Interstitial lung disease: 0
  Adverse event, n: Malaise: 0
  Adverse event, n: Mucositis oral: 0
  Adverse event, n: Neutrophil count decreased: 0
  Adverse event, n: Platelet decrease: 0
  Adverse event, n: Rash: 0
[5]
  Adverse event, n: Diarrhea: 0
  Adverse event, n: Dysgeusia: 0
  Adverse event, n: Epistaxis: 0
  Adverse event, n: High cholesterol: 0
  Adverse event, n: Hyperglycemia: 0
  Adverse event, n: Hypertriglyceridemia: 0
  Adverse event, n: Hypokalemia: 0
  Adverse event, n: Interstitial lung disease: 0
  Adverse event, n: Malaise: 0
  Adverse event, n: Mucositis oral: 0
  Adverse event, n: Neutrophil count decreased: 0
  Adverse event, n: Platelet decrease: 0
  Adverse event, n: Rash: 0
[6]
  Adverse event, n: Diarrhea: 1
  Adverse event, n: Dysgeusia: 2
  Adverse event, n: Epistaxis: 2
  Adverse event, n: High cholesterol: 4
  Adverse event, n: Hyperglycemia: 2
  Adverse event, n: Hypertriglyceridemia: 3
  Adverse event, n: Hypokalemia: 3
  Adverse event, n: Interstitial lung disease: 1
  Adverse event, n: Malaise: 2
  Adverse event, n: Mucositis oral: 6
  Adverse event, n: Neutrophil count decreased: 0
  Adverse event, n: Platelet decrease: 2
  Adverse event, n: Rash: 4
[7]
  Adverse event, n: Diarrhea: 1
  Adverse event, n: Dysgeusia: 3
  Adverse event, n: Epistaxis: 4
  Adverse event, n: High cholesterol: 5
  Adverse event, n: Hyperglycemia: 2
  Adverse event, n: Hypertriglyceridemia: 6
  Adverse event, n: Hypokalemia: 4
  Adverse event, n: Interstitial lung disease: 3
  Adverse event, n: Malaise: 5
  Adverse event, n: Mucositis oral: 5
  Adverse event, n: Neutrophil count decreased: 2
  Adverse event, n: Platelet decrease: 7
  Adverse event, n: Rash: 8
[8]
  Adverse event, n: Diarrhea: 3
  Adverse event, n: Dysgeusia: 0
  Adverse event, n: Epistaxis: 0
  Adverse event, n: High cholesterol: 2
  Adverse event, n: Hyperglycemia: 1
  Adverse event, n: Hypertriglyceridemia: 3
  Adverse event, n: Hypokalemia: 1
  Adverse event, n: Interstitial lung disease: 1
  Adverse event, n: Malaise: 0
  Adverse event, n: Mucositis oral: 6
  Adverse event, n: Neutrophil count decreased: 3
  Adverse event, n: Platelet decrease: 0
  Adverse event, n: Rash: 2
[9]
  Adverse event, n: Diarrhea: 0
  Adverse event, n: Dysgeusia: 0
  Adverse event, n: Epistaxis: 0
  Adverse event, n: High cholesterol: 0
  Adverse event, n: Hyperglycemia: 0
  Adverse event, n: Hypertriglyceridemia: 0
  Adverse event, n: Hypokalemia: 0
  Adverse event, n: Interstitial lung disease: 0
  Adverse event, n: Malaise: 0
  Adverse event, n: Mucositis oral: 0
  Adverse event, n: Neutrophil count decreased: 1
  Adverse event, n: Platelet decrease: 0
  Adverse event, n: Rash: 0
[10]
  Adverse event, n: Diarrhea: 0
  Adverse event, n: Dysgeusia: 0
  Adverse event, n: Epistaxis: 0
  Adverse event, n: High cholesterol: 0
  Adverse event, n: Hyperglycemia: 0
  Adverse event, n: Hypertriglyceridemia: 0
  Adverse event, n: Hypokalemia: 1
  Adverse event, n: Interstitial lung disease: 0
  Adverse event, n: Malaise: 0
  Adverse event, n: Mucositis oral: 0
  Adverse event, n: Neutrophil count decreased: 0
  Adverse event, n: Platelet decrease: 0
  Adverse event, n: Rash: 0
[11]
  Adverse event, n: Diarrhea: 4
  Adverse event, n: Dysgeusia: 3
  Adverse event, n: Epistaxis: 4
  Adverse event, n: High cholesterol: 7
  Adverse event, n: Hyperglycemia: 3
  Adverse event, n: Hypertriglyceridemia: 9
  Adverse event, n: Hypokalemia: 6
  Adverse event, n: Interstitial lung disease: 4
  Adverse event, n: Malaise: 5
  Adverse event, n: Mucositis oral: 11
  Adverse event, n: Neutrophil count decreased: 6
  Adverse event, n: Platelet decrease: 7
  Adverse event, n: Rash: 10
All patients, n = 18
  stomatitis, incidence, all grade: 94%
From the starting dose of 10 mg (7/18)
  proportion of all patients who required a second dose reduction: 39%
Of 18 patients, during the 10 months of the study period
  number of patients with dose-limiting toxicities (DLTs): 13
Starting dose of 5 mg (5/6)
  proportion of patients who required dose reduction owing to adverse drug reactions: 83%
Three patients, clarithromycin 200 mg twice daily for 7 days (CYP3A4 inhibitor) during everolimus treatment
  DLT while being treated with clarithromycin: no DLT
